The values that follow come from EP4768487A1, “FUSED LACTAM RING COMPOUND AND USE THEREOF” (Chengdu Zenitar Biomedical Technology Co., Ltd., priority 2023, dated 2025).

Molecules are shown by their SMILES.

The subject of assay [1] is BRCA-mutated MDA-MB-436 cells. As to the kind of experiment: Anti-proliferative activity against cells (CCK8): MDA-MB-436. The settings on record: Homo sapiens, 72 h + 96 h culture. Type of assay: cell-based.
The target in another assay is T1, PARP1 (Homo sapiens, UniProt P09874).
T1 construct: purchased BPS 80501
The assay can be described thus: PARP1 enzyme assay (histone-coated plate, chemiluminescence). It is filed as biochemical. Conditions: PARP1 0.02 nM, DNA 0.8 nM, NAD+ 3.5 µM; read-out: PARP-1 IC50. As to the method: 1.1.1. Buffer preparation: PBST: 1× PBS, 0.05% Tween-20; blocking buffer: 1× PBS, 0.05% Tween-20, 5% BSA; reaction buffer: 50 mM Tris-HCl (pH 7.5), 0.005% Tween-20, 0.01% BSA.
1.1.2. Coating: A 50 ng/mL Histone coating solution was prepared with 1× PBS and then transferred to a 384-well reaction plate at 25 µL/well. The plate was coated at 4 °C overnight.
1.1.3. Washing: After the coating was completed, the coating solution was discarded, and the plate was washed with the PBST solution. The method was as follows: PBST was transferred to the 384-well reaction plate at 50 µL/well, and the plate was left to stand for 5 min. The washing solution was then discarded, and the plate was refilled. The washing step was repeated 3 times. Finally, the reaction plate was patted dry and left for the next step of blocking.
1.1.4. Blocking: The blocking buffer was transferred to the 384-well reaction plate at 50 µL/well, and the plate was left to stand for 1 h.
Washing: After the blocking was completed, the blocking buffer was discarded, and the plate was washed 3 times with the PBST solution according to the method in step 2. Finally, the reaction plate was patted dry.
1.1.5. A 1000-fold solution of a compound was prepared and then transferred at 1 µL/well to a 96-well plate containing 199 µL of the reaction buffer. The mixture was well mixed, and then the well mixed compound solution was transferred to the 384-well reaction plate at 5 µL/well. 1.1.6. A 25/10-fold PARP1-DNA solution was prepared with the reaction buffer and then transferred to the 384-well reaction plate at 10 µL/well. For the negative control wells, 10 µL
of the DNA solution was transferred. The final concentrations of PARP1 and DNA were 0.02 nM and 0.8 nM, respectively.
1.1.9. Washing: After the reaction was completed, the reaction solution was discarded, and the plate was washed 3 times with the PBST solution according to the method in step 2. Finally, the reaction plate was patted dry.
1.1.10. A primary antibody (anti-Poly/Mono-ADP Ribose Rabbit mAb) was diluted 2000-fold with the blocking buffer and then added at 20 µL/well.
1.1.11. Washing: The primary antibody was discarded, and the plate was washed 3 times with the PBST solution according to the method in step 2. Finally, the reaction plate was patted dry.
1.1.12. A secondary antibody (anti-rabbit IgG, HRP-linked Antibody) was diluted 2000-fold with the blocking buffer and then added at 20 µL/well.
1.1.13. Washing: The secondary antibody was discarded, and the plate was washed 3 times with the PBST solution according to the method in step 2. Finally, the reaction plate was patted dry.
1.1.14. Color development: Femto-ECL Substrate A and Femto-ECL Substrate B were mixed at a ratio of 1:1, and the mixture was transferred to the 384-well reaction plate at 25 µL/well. 1.1.15. Reading: The chemiluminescence values (RLU) were measured using Envision.

For assay [2], the system named is BRCA wild-type DLD-1 cells. The assay can be described thus: Anti-proliferative activity against cells (CCK8): DLD-1. It is filed as cell-based. The settings on record: Homo sapiens, 72 h + 96 h culture. As to the method:
BRCA wild-type DLD-1 cells were cultured in an RPMI-1640 medium containing 10% fetal bovine serum, 100 U/mL penicillin, and 100 µg/mL streptomycin, and incubated in an incubator with 5% saturated CO2 at 37 °C. When the cells grew to 80% confluence, they were collected, centrifuged at 300 g for 10 min, and then plated onto a 96-well plate at 1000 cells/well. After 24 h, different final concentrations (0 µM, 1 µM, and 10 µM) of PARPi were added, and the cells were cultured for another 72 h. The cells were subjected to medium exchange treatment (re-supplemented with PARPi at the same final concentrations) and then cultured for another 96 h. The 96-well plate was taken out.

T1 sequence (P09874 whole entry): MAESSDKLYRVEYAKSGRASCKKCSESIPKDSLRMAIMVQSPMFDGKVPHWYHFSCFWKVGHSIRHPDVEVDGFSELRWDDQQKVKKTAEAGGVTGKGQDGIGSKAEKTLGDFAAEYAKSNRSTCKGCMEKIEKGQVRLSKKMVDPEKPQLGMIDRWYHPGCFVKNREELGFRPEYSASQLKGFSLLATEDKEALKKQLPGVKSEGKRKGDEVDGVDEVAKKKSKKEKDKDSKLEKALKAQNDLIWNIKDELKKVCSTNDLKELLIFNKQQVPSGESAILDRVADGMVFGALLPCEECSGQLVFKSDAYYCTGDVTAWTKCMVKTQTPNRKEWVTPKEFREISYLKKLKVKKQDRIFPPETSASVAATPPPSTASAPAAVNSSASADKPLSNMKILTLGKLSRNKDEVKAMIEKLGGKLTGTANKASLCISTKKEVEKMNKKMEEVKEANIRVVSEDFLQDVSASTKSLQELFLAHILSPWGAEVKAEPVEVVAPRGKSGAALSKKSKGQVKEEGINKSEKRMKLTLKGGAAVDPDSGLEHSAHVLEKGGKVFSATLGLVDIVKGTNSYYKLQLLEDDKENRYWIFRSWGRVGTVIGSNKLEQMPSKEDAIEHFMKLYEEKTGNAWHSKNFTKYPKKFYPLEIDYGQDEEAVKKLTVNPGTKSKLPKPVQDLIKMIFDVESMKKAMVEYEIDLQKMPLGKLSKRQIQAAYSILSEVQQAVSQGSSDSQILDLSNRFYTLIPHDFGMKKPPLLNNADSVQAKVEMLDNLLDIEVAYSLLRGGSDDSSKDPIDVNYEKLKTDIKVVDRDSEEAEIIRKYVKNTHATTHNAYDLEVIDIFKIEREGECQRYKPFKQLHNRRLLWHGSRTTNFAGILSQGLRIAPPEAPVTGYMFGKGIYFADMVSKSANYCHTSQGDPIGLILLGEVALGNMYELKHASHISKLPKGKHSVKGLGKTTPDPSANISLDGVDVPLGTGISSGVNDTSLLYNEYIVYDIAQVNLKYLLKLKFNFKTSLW

`CCc1cc2c([nH]c1=O)CC(CN1CCN(c3ccc(C(=O)NC4CC4)nc3F)CC1)OC2` (centres unmarked) [Compound 3, N-Cyclopropyl-5-(4-((3-ethyl-2-oxo-1,5,7,8-tetrahydro-2H-pyrano[4,3-b]pyridin-7-yl)methyl)piperazin-1-yl)-6-fluoropicolinamide]: the IC50 (as a rule, the concentration needed to halve the response being measured) in assay [1] was 1.5 nM; at PARP1, at most 50 nM; in assay [2] it was above 1000 nM.
On to `CNC(=O)c1ccc(N2CCN(CC3Cc4[nH]c(=O)c(C5CC5)cc4CO3)CC2)c(F)n1` (centres unmarked) [Example 42, 5-(4-((3-Cyclopropyl-2-oxo-1,5,7,8-tetrahydro-2H-pyrano[4,3-b]pyridin-7-yl)methyl)piperazin-1-yl)-6-fluoro-N-methylpicolinamide], for which the half-inhibitory concentration (IC50) is 50 to 500 nM at PARP1 and above 1000 nM in assay [2].
For the compound `CNC(=O)c1ccc(N2CCN(CC3Cc4[nH]c(=O)c(SC)cc4CO3)CC2)c(F)n1` (centres unmarked) [Example 96, 6-Fluoro-N-methyl-5-(4-((3-(methylthio)-2-oxo-1,5,7,8-tetrahydro-2H-pyrano[4,3-b]pyridin-7-yl)methyl)piperazin-1-yl)picolinamide], the IC50 on PARP1 is at most 50 nM; in assay [2], above 1000 nM.
The like results for `CCc1nc2c([nH]c1=O)C[C@@H](CN1CCN(c3ccc(C(=O)NC)nc3F)CC1)CC2` [Example 48, (S)-5-(4-((2-Ethyl-3-oxo-3,4,5,6,7,8-hexahydroquinoxalin-6-yl)methyl)piperazin-1-yl)-6-fluor o-N-methylpicolinamide] were, in that order, at most 50 nM and above 1000 nM.
With `CNC(=O)c1ccc(C2=CCN(CC3Cc4[nH]c(=O)c(C)cc4CO3)CC2)c(F)n1` (centres unmarked) [Example 50, 2-Fluoro-N-methyl-1'-((3-methyl-2-oxo-1,5,7,8-tetrahydro-2H-pyrano[4,3-b]pyridin-7-yl)methyl)-1',2',3',6'-tetrahydro-[3,4'-bipyridine]-6-carboxamide], the IC50 in assay [1] was 350 nM; at PARP1, 50 to 500 nM; in assay [2] it was above 1000 nM.
Consider `CCc1cc2c([nH]c1=O)C[C@@H](CN1CCN(c3ccc(C(=O)NC)nc3F)CC1)OC2` [Example 65, (S)-5-(4-((3-Ethyl-2-oxo-1,5,7,8-tetrahydro-2H-pyrano[4,3-b]pyridin-7-yl)methyl)piperazin-1-yl)-6-fluoro-N-methylpicolinamide], for which the results for the IC50 in assay [1] and in assay [2] were 0.7 nM and above 1000 nM, respectively.
With `COC1CC(NC(=O)c2ccc(N3CCN(CC4Cc5[nH]c(=O)c(C)cc5CO4)CC3)c(F)n2)C1` (centres unmarked) [Example 79, 6-Fluoro-N-(3-methoxycyclobutyl)-5-(4-((3-methyl-2-oxo-1,5,7,8-tetrahydro-2H-pyrano[4,3-b]pyridin-7-yl)methyl)piperazin-1-yl)picolinamide], the IC50 in assay [1] is 130 nM; in assay [2], above 1000 nM.
For the compound `CNC(=O)c1ccc(C2=CCN(CC3Cc4[nH]c(=O)c(C(F)F)cc4CO3)CC2)c(F)n1` (centres unmarked) [Example 52, 1'-((3-(Difluoromethyl)-2-oxo-1,5,7,8-tetrahydro-2H-pyrano[4,3-b]pyridin-7-yl)methyl)-2-flu oro-N-methyl-1',2',3',6'-tetrahydro-[3,4'-bipyridine]-6-carboxamide], the IC50 was 200 nM in assay [1], 50 to 500 nM at PARP1 and above 1000 nM in assay [2].
In the case of `CNC(=O)c1ccc(C2CCN(CC3Cc4[nH]c(=O)c(C5CC5)cc4CO3)CC2)c(F)n1` (centres unmarked) [Example 61, 5-(1-((3-Cyclopropyl-2-oxo-1,5,7,8-tetrahydro-2H-pyrano[4,3-b]pyridin-7-yl)methyl)piperidin-4-yl)-6-fluoro-N-methylpicolinamide], the figures for the IC50 (in assay [1]; on PARP1; in assay [2]) were 360 nM, 50 to 500 nM and above 1000 nM, respectively.
The like results for `CNC(=O)c1ccc(N2CCN(CC3Cc4[nH]c(=O)c(C)c(C)c4CO3)CC2)c(Cl)n1` (centres unmarked) [Example 100, 6-Chloro-5-(4-((3,4-dimethyl-2-oxo-1,5,7,8-tetrahydro-2H-pyrano[4,3-b]pyridin-7-yl)methyl)piperazin-1-yl)-N-methylpicolinamide] were, in that order, 15.5 nM, at most 50 nM and above 1000 nM.
The matching figures for `C=Cc1cc2c([nH]c1=O)CC(CN1CC=C(c3ccc(C(=O)NC)nc3F)CC1)OC2` (centres unmarked) [Example 68, 2-Fluoro-N-methyl-1'-((2-oxo-3-vinyl-1,5,7,8-tetrahydro-2H-pyrano[4,3-b]pyridin-7-yl)methyl)-1',2',3',6'-tetrahydro-[3,4'-bipyridine]-6-carboxamide]: 6 nM, at most 50 nM and above 1000 nM.
For the compound `CNC(=O)c1ccc2c(n1)COC[C@H]1CN(CC3Cc4[nH]c(=O)c(C)cc4CO3)CCN21` (stereo partly drawn) [Example 92, (4aR)-N-Methyl-3-((3-methyl-2-oxo-1,5,7,8-tetrahydro-2H-pyrano[4,3-b]pyridin-7-yl)methyl) -1,2,3,4,4a,5-hexahydro-7H-pyrazino[2,1-c]pyrido[3,2-e][1,4]oxazolidine-9-carboxamide], the IC50 at PARP1 is at most 50 nM; in assay [2], above 1000 nM.
On to `CNC(=O)c1ccc(C2CCN(C[C@H]3CCc4nc(C)c(=O)[nH]c4C3)CC2)c(F)n1` [Example 80, (S)-6-Fluoro-N-methyl-5-(1-((2-methyl-3-oxo-3,4,5,6,7,8-hexahydroquinoxalin-6-yl)methyl)piperidin-4-yl)picolinamide], for which the half-maximal inhibitory concentration (IC50) in assay [1] was 300 nM; in assay [2], above 1000 nM.
For the compound `CCc1cc2c([nH]c1=O)C[C@H](CN1CCN(c3ccc(C(=O)NC)nc3F)CC1)OC2` [Example 66, (R)-5-(4-((3-ethyl-2-oxo-1,5,7,8-tetrahydro-2H-pyrano[4,3-b]pyridin-7-yl)methyl)piperazin-1-yl)-6-fluoro-N-methylpicolinamide], the figures for the 50% inhibitory concentration (IC50) in assay [1] and in assay [2] were 4.5 nM and above 1000 nM, respectively.
With `CNC(=O)c1ccc(N2CCN(CC3Cc4[nH]c(=O)c(Br)cc4CO3)CC2)c(F)n1` (centres unmarked) [Example 40, 5-(4-((3-Bromo-2-oxo-1,5,7,8-tetrahydro-2H-pyrano[4,3-b]pyridin-7-yl)methyl)piperazin-1-yl)-6-fluoro-N-methylpicolinamide], the IC50 is at most 50 nM on PARP1 and above 1000 nM in assay [2].
On to `CNC(=O)c1ccc(N2CCN(C[C@H]3CCc4nc(C5CC5)c(=O)[nH]c4C3)CC2)c(F)n1` [Example 57, (S)-5-(4-((2-Cyclopropyl-3-oxo-3,4,5,6,7,8-hexahydroquinoxaline-6-yl)methyl)piperazin-1-yl)-6-fluoro-N-methylpicolinamide], for which the IC50 on PARP1 is at most 50 nM; in assay [2] it was above 1000 nM.
Consider `CNC(=O)c1ccc(N2CCN(C(C)[C@H]3CCc4nc(C)c(=O)[nH]c4C3)CC2)c(F)n1` (stereo partly drawn) [Example 71, (S)-6-Fluoro-N-methyl-5-(4-(1-(2-methyl-3-oxo-3,4,5,6,7,8-hexahydroquinoxalin-6-yl)ethyl)piperazin-1-yl)picolinamide], for which the figures for the IC50 (on PARP1; in assay [2]) were at most 50 nM and above 1000 nM, respectively.
The matching figures for `CNC(=O)c1ccc(N2CCN(CC3COc4cc(Cl)c(=O)[nH]c4C3)CC2)c(F)n1` (centres unmarked) [Example 86, 5-(4-((7-Chloro-6-oxo-3,4,5,6-tetrahydro-2H-pyrano[3,2-b]pyridin-3-yl)methyl)piperazin-1-yl)-6-fluoro-N-methylpicolinamide]: 50 to 500 nM and above 1000 nM.
`CNC(=O)c1ccc(C2=CCN(C[C@H]3CCc4nc(C5CC5)c(=O)[nH]c4C3)CC2)c(F)n1` [Example 56, (S)-1'-((2-Cyclopropyl-3-oxo-3,4,5,6,7,8-hexahydroquinoxaline-6-yl)methyl)-2-fluoro-N-met hyl-1',2',3',6'-tetrahydro-[3,4'-bipyridine]-6-carboxamide]: the IC50 on PARP1 was at most 50 nM; in assay [2] it was above 1000 nM.
